Test results reported in ChEMBL document CHEMBL3046471, “Evaluation of the anti-inflammatory activity of some pyrrolo[2,3-d]pyrimidine derivatives” (2013).

Experiments:
Type in all cases: functional
Rattus norvegicus [1] = experiment: Anti-inflammatory activity in sc dosed Sprague-Dawley Rattus norvegicus (rat) assessed as inhibition of carrageenan-induced paw edema administered at 1 hr prior to carrageenan injection measured at 3 hr post-carrageenan challenge by water plethysmometer
Rattus norvegicus [2] = experiment: Anti-inflammatory activity in sc dosed Sprague-Dawley Rattus norvegicus (rat) assessed as inhibition of carrageenan-induced paw edema administered at 1 hr prior to carrageenan injection measured at 4 hr post-carrageenan challenge by water plethysmometer
Rattus norvegicus [3] = experiment: Anti-inflammatory activity in sc dosed Sprague-Dawley Rattus norvegicus (rat) assessed as inhibition of carrageenan-induced paw edema administered at 1 hr prior to carrageenan injection measured at 2 hr post-carrageenan challenge by water plethysmometer
Rattus norvegicus [4] = experiment: Anti-inflammatory activity in sc dosed Sprague-Dawley Rattus norvegicus (rat) assessed as inhibition of carrageenan-induced paw edema administered at 1 hr prior to carrageenan injection measured at 1 hr post-carrageenan challenge by water plethysmometer
Rattus norvegicus [5] = experiment: Anti-inflammatory activity in Sprague-Dawley Rattus norvegicus (rat) assessed as inhibition of carrageenan-induced paw edema administered at 70 mg/kg, sc at 1 hr prior to carrageenan injection measured at 1 hr post-carrageenan challenge by water plethysmometer; settings: route subcutaneous
Rattus norvegicus [6] = experiment: Anti-inflammatory activity in Sprague-Dawley Rattus norvegicus (rat) assessed as inhibition of carrageenan-induced paw edema at 70 mg/kg, sc administered at 1 hr prior to carrageenan injection measured at 4 hr post-carrageenan challenge by water plethysmometer; settings: route subcutaneous
Rattus norvegicus [7] = experiment: Anti-inflammatory activity in Sprague-Dawley Rattus norvegicus (rat) assessed as inhibition of carrageenan-induced paw edema at 70 mg/kg, sc administered at 1 hr prior to carrageenan injection measured at 3 hr post-carrageenan challenge by water plethysmometer; settings: route subcutaneous
Rattus norvegicus [8] = experiment: Anti-inflammatory activity in Sprague-Dawley Rattus norvegicus (rat) assessed as inhibition of carrageenan-induced paw edema at 70 mg/kg, sc administered at 1 hr prior to carrageenan injection measured at 2 hr post-carrageenan challenge by water plethysmometer; settings: route subcutaneous

Structure (SMILES) | inhibition (INH) (Rattus norvegicus [1]) [%] | inhibition (INH) (Rattus norvegicus [2]) [%] | inhibition (INH) (Rattus norvegicus [3]) [%] | inhibition (INH) (Rattus norvegicus [4]) [%] | inhibition in vivo at 70 mg/kg (Rattus norvegicus [5]) [%] | inhibition in vivo at 70 mg/kg (Rattus norvegicus [6]) [%] | inhibition in vivo at 70 mg/kg (Rattus norvegicus [7]) [%] | inhibition in vivo at 70 mg/kg (Rattus norvegicus [8]) [%]
Cc1ccc(-n2c(-c3ccccc3)c(-c3ccccc3)c3c2ncn2cnnc32)cc1 | 15.07 | 44.44 | 0 | 0 |  |  |  | 
Cc1ccc(-n2c(-c3ccccc3)c(-c3ccccc3)c3c2ncn2c(C)nnc32)cc1 | 16.91 | 23.81 | 10 | 7.39 |  |  |  | 
COc1ccc(-n2cc(-c3ccccc3)c3c(-n4nc(C)cc4C)ncnc32)cc1 | 35.66 | 61.9 | 23.85 | 7.82 |  |  |  | 
Cc1ccc(-n2c(-c3ccccc3)c(-c3ccccc3)c3c(Cl)ncnc32)cc1 | 31.43 | 28.59 | 10 | 3.92 |  |  |  | 
COc1ccc(-n2c(-c3ccccc3)c(-c3ccccc3)c3c(Cl)ncnc32)cc1 | 33.64 | 45.39 | 0 | 0 |  |  |  | 
Cc1ccc(-n2cc(-c3ccccc3)c3c(Cl)ncnc32)cc1 | 31.25 | 18.25 | 1.92 | 1.3 |  |  |  | 
COc1ccc(-n2cc(-c3ccccc3)c3c(Cl)ncnc32)cc1 | 32.9 | 18.89 | 17.3 | 13.4 |  |  |  | 
Cc1ccc(-n2c(-c3ccccc3)c(-c3ccccc3)c3c(NN)ncnc32)cc1 | 29.6 | 18.57 | 0 | 0 |  |  |  | 
COc1ccc(-n2c(-c3ccccc3)c(-c3ccccc3)c3c(NN)ncnc32)cc1 | 61.4 | 62.38 | 16.92 | 13.48 |  |  |  | 
Cc1ccc(-n2cc(-c3ccccc3)c3c(NN)ncnc32)cc1 | 45.4 | 39.21 | 0 | 0 |  |  |  | 
COc1ccc(-n2cc(-c3ccccc3)c3c(NN)ncnc32)cc1 | 41.73 | 50.26 | 8.85 | 23.04 |  |  |  | 
COc1ccc(-n2c(-c3ccccc3)c(-c3ccccc3)c3c2ncn2cnnc32)cc1 | 27.94 | 47.62 | 15.77 | 8.69 |  |  |  | 
Cc1ccc(-n2cc(-c3ccccc3)c3c2ncn2cnnc32)cc1 | 10.48 | 28.57 | 0 | 0 |  |  |  | 
COc1ccc(-n2cc(-c3ccccc3)c3c2ncn2cnnc32)cc1 | 33.46 | 36.19 | 0 | 0 |  |  |  | 
Cc1ccc(-n2c(-c3ccccc3)c(-c3ccccc3)c3c2ncn2c(=S)[nH]nc32)cc1 | 17.27 | 23.81 | 10.38 | 0 |  |  |  | 
COc1ccc(-n2c(-c3ccccc3)c(-c3ccccc3)c3c2ncn2c(=S)[nH]nc32)cc1 | 19.49 | 34.6 | 20.38 | 7.39 |  |  |  | 
Cc1ccc(-n2cc(-c3ccccc3)c3c2ncn2c(=S)[nH]nc32)cc1 | 33.8 | 39.21 | 19.23 | 3.04 |  |  |  | 

Structure (SMILES) | inhibition (INH) (Rattus norvegicus [1]) [%] | inhibition (INH) (Rattus norvegicus [2]) [%] | inhibition (INH) (Rattus norvegicus [3]) [%] | inhibition (INH) (Rattus norvegicus [4]) [%] | inhibition in vivo at 70 mg/kg (Rattus norvegicus [5]) [%] | inhibition in vivo at 70 mg/kg (Rattus norvegicus [6]) [%] | inhibition in vivo at 70 mg/kg (Rattus norvegicus [7]) [%] | inhibition in vivo at 70 mg/kg (Rattus norvegicus [8]) [%]
COc1ccc(-n2cc(-c3ccccc3)c3c2ncn2c(=S)[nH]nc32)cc1 | 28.31 | 47.62 | 0 | 0 |  |  |  | 
COc1ccc(-n2c(-c3ccccc3)c(-c3ccccc3)c3c2ncn2c(C)nnc32)cc1 | 14.15 | 28.25 | 0 | 0 |  |  |  | 
Cc1ccc(-n2cc(-c3ccccc3)c3c2ncn2c(C)nnc32)cc1 | 29.5 | 32.85 | 18.85 | 11.74 |  |  |  | 
COc1ccc(-n2cc(-c3ccccc3)c3c2ncn2c(C)nnc32)cc1 | 27.8 | 35.98 | 0.5416 | 15.94 |  |  |  | 
Cc1ccc(-n2c(-c3ccccc3)c(-c3ccccc3)c3c2ncn2c(=O)[nH]nc32)cc1 | 19.7 | 42.85 | 0 | 0 |  |  |  | 
COc1ccc(-n2c(-c3ccccc3)c(-c3ccccc3)c3c2ncn2c(=O)[nH]nc32)cc1 | 18.5 | 36.5 | 10.38 | 1.45 |  |  |  | 
Cc1ccc(-n2c(-c3ccccc3)c(-c3ccccc3)c3c(N/N=C/c4ccccc4)ncnc32)cc1 | 15.44 | 32.8 | 0 | 0 |  |  |  | 
COc1ccc(-n2c(-c3ccccc3)c(-c3ccccc3)c3c(N/N=C/c4ccccc4)ncnc32)cc1 | 54.04 | 62.96 | 32.31 | 17.39 |  |  |  | 
Cc1ccc(-n2cc(-c3ccccc3)c3c(N/N=C/c4ccccc4)ncnc32)cc1 | 27.7 | 41.8 | 0 | 0 |  |  |  | 
COc1ccc(-n2cc(-c3ccccc3)c3c(N/N=C/c4ccccc4)ncnc32)cc1 | 62.68 | 66.19 | 30.77 | 23.04 |  |  |  | 
Cc1ccc(-n2c(-c3ccccc3)c(-c3ccccc3)c3c2ncn2nnnc32)cc1 | 26.83 | 31.59 | 11.54 | 5.65 |  |  |  | 
COc1ccc(-n2c(-c3ccccc3)c(-c3ccccc3)c3c2ncn2nnnc32)cc1 | 19.7 | 39.21 | 0 | 0 |  |  |  | 
COc1ccc(-n2c(-c3ccccc3)c(-c3ccccc3)c3c(-n4nc(C)cc4C)ncnc32)cc1 | 63.24 | 74.6 | 6.41 | 0 |  |  |  | 
Cc1ccc(-n2cc(-c3ccccc3)c3c(-n4nc(C)cc4C)ncnc32)cc1 | 31.37 | 59.25 | 2.56 | 8.7 |  |  |  | 
Cc1ccc(-n2c3c(c(-c4ccccc4)c2-c2ccccc2)C2=NNC(=O)CN2C=N3)cc1 | 28.31 | 34.92 | 23.08 | 17.39 |  |  |  | 
COc1ccc(-n2c3c(c(-c4ccccc4)c2-c2ccccc2)C2=NNC(=O)CN2C=N3)cc1 | 15.44 | 32.8 | 0 | 0 |  |  |  | 
CC(C)Cc1ccc(C(C)C(=O)O)cc1 (stereo unspecified) [IBUPROFEN] |  |  |  |  | 6.08 | 69.5 | 60.7 | 45
